Source: patent US7008632B2, “Combination of biological and chemical agents to combat rodents” (priority 2000, dated 2006)
Marks after values point to notes of the source that are not given here.

Assays:
[1] = system: feral adult brown rats (Rattus norvegicus); assay: Experiment using feral adult brown rats: mortality after gavage of sporocysts, coumatetralyl or the combination; format: in vivo; conditions: single gavage; 10 000 sporocysts and/or 6 mg of coumatetralyl per kg of body weight
Protocol: Experiment Using Feral Adult Brown Rats (Rattus norvegicus)
The mortality was determined.
The rats were raised under standard conditions in the laboratory. During the experiment and the 2-week preparation, they were kept individually in cages made of Makrolon. Sporocyst suspension and coumatetralyl were administered by gavage, and during the administration the animals were anesthetized lightly using diethyl ether.

Rattus norvegicus = conditions: non-resistant rats; cited from earlier work

For `O=c1oc2ccccc2c(O)c1C1CCCc2ccccc21` (stereo not drawn) [coumatetralyl, 3-(1′,2′,3′,4′-tetrahydro-1′-naphthyl)-4-hydroxycoumarin], which Mortality % [1] is on record?
The Mortality % was 17* %.

With `O=c1oc2ccccc2c(O)c1C(CC(O)c1ccc(-c2ccc(Br)cc2)cc1)c1ccccc1` (stereo not drawn) [bromadiolone, 3-(4′-hydroxy-3′-coumarinyl)-3-phenyl-1-(4′-bromo-4′-biphenyl)-propan-1-ol] as the molecule, how does the “LD50 (acute oral)” value (Rattus norvegicus) read?
The value was 2.0 mg/kg.

For `O=c1oc2ccccc2c(O)c1C1CC(c2ccc(-c3ccc(Br)cc3)cc2)Cc2ccccc21` (stereo not drawn) [brodifacoum], which “LD50 (acute oral)” value (Rattus norvegicus) is on record?
Its value is 0.2 mg/kg.
